According to ChEMBL document CHEMBL1201862, “PubChem BioAssay data set” (2004):
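How tested: cells in 96-well plates exposed to compound for 48 hours at five concentrations. The concentration for 50% growth inhibition is given as GI50.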 Calls of active or inactive are those of the source. No stated cut-off is given here; in the data, active = GI50 up to about 1.1 µM and inactive = higher.

What was measured:
Experiment in all cases: NCI-60 cell line screen, 48 h
[1] = system: NCI/ADR-RES
[2] = system: UO-31
[3] = system: PC-3
[4] = system: MCF7
[5] = system: HCC 2998
[6] = system: HT-29
[7] = system: SF-539
[8] = system: ACHN
[9] = system: MDA-MB-435
[10] = system: SN12C
[11] = system: HL-60
[12] = system: HOP-62
[13] = system: IGROV-1
[14] = system: SK-OV-3
[15] = system: TK-10
[16] = system: SW-620
[17] = system: NCI-H460
[18] = system: SK-MEL-2
[19] = system: HCT-116
[20] = system: MDA-N
[21] = system: COLO 205
[22] = system: CCRF-CEM
[23] = system: SF-295
[24] = system: OVCAR-5
[25] = system: CAKI-1
[26] = system: M14
[27] = system: SNB-75
[28] = system: SK-MEL-28
[29] = system: RPMI-8226
[30] = system: K562
[31] = system: OVCAR-3
[32] = system: Hs-578T
[33] = system: SK-MEL-5
[34] = system: T47D
[35] = system: SR
[36] = system: NCI-H522
[37] = system: DU-145
[38] = system: A549
[39] = system: NCI-H23
[40] = system: MOLT-4
[41] = system: HOP-92
[42] = system: EKVX
[43] = system: MDA-MB-231
[44] = system: OVCAR-8
[45] = system: SF-268
[46] = system: OVCAR-4
[47] = system: RXF 393
[48] = system: NCI-H226
[49] = system: HCT-15
[50] = system: LOX IMVI
[51] = system: UACC-257
[52] = system: KM12
[53] = system: UACC-62
[54] = system: SNB-19
[55] = system: BT-549
[56] = system: 786-0
[57] = system: U-251
[58] = system: A498
[59] = system: Malme-3M

With `COc1ccc(OC)c(Cc2cnc3nc(N)nc(N)c3c2C)c1` [PIRITREXIM ISETHIONATE] the GI50 [1] was 0.989 µM (active), the GI50 [2] was 0.24 µM (active) and the GI50 [3] was 0.0353 µM (active). The GI50 [4] was 0.634 µM (active), the GI50 [5] was 0.258 µM (active) and the GI50 [6] was < 0.0168 µM (active). The GI50 [7] was 0.291 µM (active), the GI50 [8] was < 0.01 µM (active) and the GI50 [9] was < 0.0435 µM (active). For the same compound, the GI50 [10] was 0.352 µM (active), the GI50 [11] was < 0.01 µM (active) and the GI50 [12] was 0.188 µM (active). For the same compound, the GI50 [13] was < 0.0111 µM (active), the GI50 [14] was 11.3 µM (inactive) and the GI50 [15] was 13.5 µM (inactive). For the same compound, the GI50 [16] was < 0.0231 µM (active), the GI50 [17] was < 0.01 µM (active) and the GI50 [18] was 0.986 µM (active). For the same compound, the GI50 [19] was < 0.0112 µM (active), the GI50 [20] was < 0.018 µM (active) and the GI50 [21] was 12.9 µM (inactive). The GI50 [22] was < 0.0198 µM (active), the GI50 [23] was 0.0592 µM (active) and the GI50 [24] was 16.1 µM (inactive). The GI50 [25] was 0.0456 µM (active), the GI50 [26] was < 0.0201 µM (active) and the GI50 [27] was 2.1 µM (inactive). For the same compound, the GI50 [28] was 1.25 µM (inactive), the GI50 [29] was 0.173 µM (active) and the GI50 [30] was < 0.01 µM (active). The GI50 [31] was 0.533 µM (active), the GI50 [32] was 15.1 µM (inactive) and the GI50 [33] was 0.0955 µM (active). For the same compound, the GI50 [34] was 11.1 µM (inactive), the GI50 [35] was 0.03 µM (active) and the GI50 [36] was 0.204 µM (active). For the same compound, the GI50 [37] was 0.284 µM (active), the GI50 [38] was < 0.01 µM (active) and the GI50 [39] was 0.0617 µM (active). For the same compound, the GI50 [40] was < 0.0171 µM (active), the GI50 [41] was 0.752 µM (active) and the GI50 [42] was 19.5 µM (inactive). The GI50 [43] was 15.3 µM (inactive), the GI50 [44] was < 0.0234 µM (active) and the GI50 [45] was 0.0957 µM (active). For the same compound, the GI50 [46] was 13.2 µM (inactive), the GI50 [47] was 2.06 µM (inactive) and the GI50 [48] was 2.19 µM (inactive). For the same compound, the GI50 [49] was 0.0149 µM, the GI50 [50] was < 0.0142 µM (active) and the GI50 [51] was 13.9 µM (inactive). For the same compound, the GI50 [52] was 0.243 µM (active), the GI50 [53] was 0.853 µM (active) and the GI50 [54] was 0.236 µM (active). For the same compound, the GI50 [55] was 13.4 µM (inactive) and the GI50 [56] was < 0.0497 µM (active).
With `O=C1/C(=C/c2ccc([N+](=O)[O-])cc2)C(=O)N(c2ccccc2)C1c1ccccc1` (configuration not stated) the GI50 [1] was > 10 µM (inactive), the GI50 [2] was > 10 µM (inactive) and the GI50 [3] was > 10 µM (inactive). The GI50 [4] was > 10 µM (inactive), the GI50 [5] was > 10 µM (inactive) and the GI50 [6] was > 10 µM (inactive). For the same compound, the GI50 [7] was > 10 µM (inactive), the GI50 [8] was > 10 µM (inactive) and the GI50 [9] was > 10 µM (inactive). The GI50 [10] was > 10 µM (inactive), the GI50 [11] was > 10 µM (inactive) and the GI50 [57] was > 10 µM (inactive). The GI50 [12] was > 10 µM (inactive), the GI50 [13] was > 10 µM (inactive) and the GI50 [14] was > 10 µM (inactive). For the same compound, the GI50 [15] was > 10 µM (inactive), the GI50 [16] was > 10 µM (inactive) and the GI50 [17] was > 10 µM (inactive). For the same compound, the GI50 [18] was > 10 µM (inactive), the GI50 [19] was > 10 µM (inactive) and the GI50 [20] was > 10 µM (inactive). The GI50 [21] was > 10 µM (inactive), the GI50 [22] was > 10 µM (inactive) and the GI50 [23] was > 10 µM (inactive). The GI50 [24] was > 10 µM (inactive), the GI50 [25] was > 10 µM (inactive) and the GI50 [26] was > 10 µM (inactive). The GI50 [27] was > 10 µM (inactive), the GI50 [28] was > 10 µM (inactive) and the GI50 [29] was > 10 µM (inactive). The GI50 [31] was > 10 µM (inactive), the GI50 [32] was > 10 µM (inactive) and the GI50 [33] was > 10 µM (inactive). For the same compound, the GI50 [34] was > 10 µM (inactive), the GI50 [35] was > 10 µM (inactive) and the GI50 [36] was > 10 µM (inactive). The GI50 [37] was > 10 µM (inactive), the GI50 [38] was > 10 µM (inactive) and the GI50 [39] was > 10 µM (inactive). The GI50 [40] was > 10 µM (inactive), the GI50 [42] was > 10 µM (inactive) and the GI50 [43] was > 10 µM (inactive). For the same compound, the GI50 [44] was > 10 µM (inactive), the GI50 [45] was > 10 µM (inactive) and the GI50 [46] was > 10 µM (inactive). For the same compound, the GI50 [47] was > 10 µM (inactive), the GI50 [48] was > 10 µM (inactive) and the GI50 [58] was > 10 µM (inactive). For the same compound, the GI50 [49] was > 10 µM, the GI50 [50] was > 10 µM (inactive) and the GI50 [51] was > 10 µM (inactive). The GI50 [52] was > 10 µM (inactive), the GI50 [53] was > 10 µM (inactive) and the GI50 [54] was > 10 µM (inactive). For the same compound, the GI50 [55] was > 10 µM (inactive) and the GI50 [56] was > 10 µM (inactive).
In the case of `Cc1ccc(C(=C2Sc3ccccc3S2)C(=C2Sc3ccccc3S2)c2ccc(C)s2)s1`, the GI50 [1] is reported as > 100 µM (inactive), the GI50 [2] is reported as > 100 µM (inactive) and the GI50 [3] is reported as > 100 µM (inactive). The GI50 [4] was > 100 µM (inactive), the GI50 [5] was > 100 µM (inactive) and the GI50 [6] was > 100 µM (inactive). For the same compound, the GI50 [8] was > 100 µM (inactive), the GI50 [9] was > 100 µM (inactive) and the GI50 [10] was > 100 µM (inactive). For the same compound, the GI50 [11] was 13.6 µM (inactive), the GI50 [57] was > 100 µM (inactive) and the GI50 [59] was > 100 µM (inactive). The GI50 [12] was > 100 µM (inactive), the GI50 [13] was > 100 µM (inactive) and the GI50 [14] was > 100 µM (inactive). The GI50 [15] was > 100 µM (inactive), the GI50 [16] was > 100 µM (inactive) and the GI50 [18] was > 100 µM (inactive). For the same compound, the GI50 [19] was > 100 µM (inactive), the GI50 [20] was > 100 µM (inactive) and the GI50 [21] was > 100 µM (inactive). For the same compound, the GI50 [22] was > 100 µM (inactive), the GI50 [23] was > 100 µM (inactive) and the GI50 [24] was > 100 µM (inactive). The GI50 [25] was > 100 µM (inactive), the GI50 [26] was 76.2 µM (inactive) and the GI50 [27] was > 100 µM (inactive). The GI50 [28] was > 100 µM (inactive), the GI50 [29] was > 100 µM (inactive) and the GI50 [30] was > 100 µM (inactive). For the same compound, the GI50 [31] was > 100 µM (inactive), the GI50 [32] was > 100 µM (inactive) and the GI50 [33] was > 100 µM (inactive). The GI50 [34] was > 100 µM (inactive), the GI50 [35] was 47.5 µM (inactive) and the GI50 [36] was > 100 µM (inactive). For the same compound, the GI50 [37] was > 100 µM (inactive), the GI50 [38] was > 100 µM (inactive) and the GI50 [39] was > 100 µM (inactive). For the same compound, the GI50 [40] was > 100 µM (inactive), the GI50 [42] was > 100 µM (inactive) and the GI50 [43] was 42.8 µM (inactive). For the same compound, the GI50 [44] was > 100 µM (inactive), the GI50 [45] was > 100 µM (inactive) and the GI50 [46] was > 100 µM (inactive). The GI50 [47] was > 100 µM (inactive), the GI50 [48] was > 100 µM (inactive) and the GI50 [58] was > 100 µM (inactive). The GI50 [49] was > 100 µM, the GI50 [51] was > 100 µM (inactive) and the GI50 [52] was > 100 µM (inactive). For the same compound, the GI50 [53] was > 100 µM (inactive), the GI50 [54] was > 100 µM (inactive) and the GI50 [55] was > 100 µM (inactive). For the same compound, the GI50 [56] was > 100 µM (inactive).
